From patent publication EP1102770B1, “PARAMAGNETIC 3-,8-SUBSTITUTED DEUTEROPORPHYRIN DERIVATIVES, PHARMACEUTICAL PREPARATIONS CONTAINING SAME, METHOD FOR PRODUCING SAME AND THEIR USE IN MAGNETIC RESONANCE IMAGING OF NECROSIS AND INFARCTION” (SCHERING AKTIENGESELLSCHAFT, priority 1998, dated 2000)
Where “and” joins values, the source holds several entries; their conditions need not be identical. Identical values can stand only once.

How the values were obtained:
[1] = test system: humanem Coloncarcinom (HT-29 P9); assay: Effect of light (ED50) on a tumour cell culture in the presence of porphyrins (phototoxicity); type: cell-based, human; settings: concentration at which about half of the cells are no longer vital, 3 days xenon lamp (8,5 k Lux, UV filter), 2 x 30 min daily, count on day 4
Description: In Kulturflaschen von 25 ml Inhalt wird eine Zellkultur von humanem Coloncarcinom (HT-29 P9) 3 Tage bei 37°C vermehrt. Die Kulturen werden in zwei Grupen aufgeteilt und mit Lösungen der Prüfsubstanzen (50 mmol Porphyrineinheit (PE) /l, verdünnt mit fötalem Kälberserum) in zunehmender Menge (0; 1,5; 5; 8,5; 12; 15,5; 19 µmol PE/l) versetzt. Die Proben werden drei Tage lang mit einer Xenon-Lampe (8,5 k Lux, UV-Filter) bestrahlt. Die erste Gruppe erhält täglich 2 Bestrahlungen von je 30 Minuten Dauer im Abstand von 4 Stunden. Die restliche Zeit bleibt sie im Dunkeln im Brutschrank. Die zweite Gruppe wird nicht belichtet und bleibt die gesamte Zeit im Dunkeln im Brutschrank. Am vierten Tag wird das Zellwachstum durch Lebend-Tot-Färbung und Zählung mit der Zählkammer bestimmt.
In der Tabelle ist die Konzentration angegeben, bei der etwa die Hälfte der Zellen nicht mehr vital ist.

[2] = Determination of relaxivity R1; type: physicochemical; settings: Wasser; 40°C; 0,47 Tesla; Minispec PC 20; n=3
Description: • Bestimmung der Relaxivity R1 [L·mmol^-1 ·s^-1] • Gerät: Minispec PC 20 • Messung bei 40°C; 0,47 Tesla • T1-Sequenz: 180°-TI-90°, Inversion Recovery

[3] = test system: Tieren mit induziertem Myocardinfarkt; assay: MRI experiments in animals with induced myocardial infarction (necrosis-selective enhancement); type: in vivo, Ratten (Han.Wistar, Schering SPF); settings: for Enhancement im nekrotischen Areal des Myocards: single i.v. dose 100 µmol Gd / kg KGW ca. 24 h after infarct induction, middle and late phase, 2.5 to ca. 24 h p. i., MRI 2 Tesla; for Abgrenzung des nekrotischen Areals im MRI-Experiment, Korrelation mit histologischer NBT ("Vital"-) Färbung: single i.v. dose 100 µmol Gd / kg KGW, heart prepared ca. 24 h p. i.
Description: Das nekroseselektive Enhancement wurde nach einmaliger intravenöser Applikation der Substanz aus Beispiel 1d an Tieren mit experimentell erzeugtem Myocardinfarkt im MRI Experiment untersucht. Die Induktion der Herzinfarkte erfolgte an narkotisierten (Domitor®/Dormicum®, i.m.) Ratten (Han.Wistar, Schering SPF, ca.300 g KGW) durch Okklusion der linken Coronararterie. Die Kontrastmittelapplikation (Dosis: 100 µmol Gd / kg KGW) erfolgte ca. 24 h nach der Infarktinduktion. Die Tiere wurden vor und bis 24 h nach KM-Applikation MR-tomographisch (SISCO SIS 85, 2 Tesla; SE-Sequenz, EKG-getriggert, TR: ca. 400 ms, TE: 10 ms, nt=4, ni=256, FOV: 7*7 cm, SD ≈ 3 mm, je 1 Schicht axial) untersucht. Ca. 24 h p. i. wurden die Tiere - im MRT - durch eine Narkotikaüberdosis getötet und zusätzlich ein MRI-Experiment am "frischtoten" Tier (--> keine Bewegungsartefakte) durchgeführt. Zur Verifizierung des Infarktes (Größe und Lage) wurde das Herz präpariert, in Scheiben geschnitten und anschließend eine NBT ("Vital-") Färbung durchgeführt. Vor KM-Applikation ist das infarzierte Areal nicht vom "normalen" Myocard zu unterscheiden, da sich beide Areale isointens darstellen (s. Abb.: 1a). Direkt nach der Substanzapplikation stellt sich der nicht-perfundierte Anteil des Myocards als hypointenses Areal dar (s. Abb.: 1b). Ab ca. 30 min p. i. steigt die Signalintensität im nicht-perfundierten Areal etwas an bzw. die Größe des abgegrenzten (Signalarmen) Areals nimmt ab (--> langsame Diffusion in die Nekrose).
Das nekroseselektive Enhancement wurde nach einmaliger intravenöser Applikation der Substanz aus Beispiel 2d an Tieren mit experimentell erzeugtem Myocardinfarkt im MRI Experiment untersucht. Die Induktion der Herzinfarkte erfolgte an narkotisierten (Domitor®/Dormicum®, i.m.) Ratten (Han.Wistar, Schering SPF, ca.300 g KGW) durch Okklusion der linken Coronararterie. Die Kontrastmittelapplikation (Dosis: 100 µmol Gd / kg KGW ) erfolgte ca. 24 h nach der Infarktinduktion. Die Tiere wurden vor und bis 3 h (kontinuierlich) sowie 24 h nach KM-Applikation MR-tomographisch (SISCO SIS 85, 2 Tesla; SE-Sequenz, EKG-getriggert, TR: ca. 400 ms, TE: 10 ms, nt=4, ni=256, FOV: 7*7 cm, SD ≈ 3 mm, je 1 Schicht axial) untersucht. Ca. 24 h p. i. wurden die Tiere - im MRT - durch eine Narkotikaüberdosis getötet und ein MRI-Experiment am "frischtoten" Tier (--> keine Bewegungsartefakte) durchgeführt. Zur Verifizierung des Infarktes (Größe und Lage) wurde das Herz präpariert, in Scheiben geschnitten und anschließend eine NBT (nitro blue tetrazolium chlorid) Färbung durchgeführt. Vor KM-Applikation ist das infarzierte Areal nicht vom "normalen" Myocard zu unterscheiden, da sich beide Areale isointens darstellen (s. Abb.: 2a). Direkt nach der Substanzapplikation stellt sich der nicht-perfundierte Anteil des Myocards als hypointenses Areal dar (s. Abb.: 2b). Ab ca. 30 min p. i. steigt die Signalintensität im nicht-perfundierten Areal etwas an bzw. die Größe des abgegrenzten (signalarmen) Areals nimmt ab (--> langsame Diffusion in die Nekrose).
Das nekroseselektive Enhancement wurde nach einmaliger intravenöser Applikation der Substanz aus Beispiel 4d an Tieren mit experimentell erzeugtem Myocardinfarkt im MRI Experiment untersucht. Die Induktion der Herzinfarkte erfolgte an narkotisierten (Domitor®/Dormicum®, i. m.) Ratten (Han. Wistar, Schering SPF, ca. 300 g KGW) durch Okklusion der linken Coronararterie. Die Kontrastmittelapplikation (Dosis: 100 µmol Gd / kg KGW) erfolgte ca. 24 h nach der Infarktinduktion. Die Tiere wurden vor und bis 3 h (kontinuierlich) sowie 24 h nach KM-Applikation MR-tomographisch (SISCO SIS 85, 2 Tesla; SE-Sequenz, EKG-getriggert, TR: ca. 400 ms, TE: 10 ms, nt=4, ni=256, FOV: 7*7 cm, SD ≈ 3 mm, je 1 Schicht axial) untersucht. Ca. 24 h p. i. wurden die Tiere - im MRT - durch eine Narkotikaüberdosis getötet und ein MRI-Experiment am "frischtoten" Tier (--> keine Bewegungsartefakte) durchgeführt. […]

[4] = Acute tolerance after single intravenous administration; type: in vivo, SPF-Mäuse (NMRI, Schering); settings: mouse, single i.v., observation 7 days
Description: Es soll die Akute Verträglichkeit der Titelverbindung aus Beispiel 2d nach einmaliger intravenöser Gabe an der Maus untersucht werden.
Testmethode: Methode KM D1, 5. Auflage Tiermaterial: SPF-Mäuse (NMRI, Schering), 18-22 g, f:m = 50:50 Injektionsgeschwindigkeit: 2 ml/min. Kriterium der Wirksamkeit: exitus letalis Beobachtungszeitraum: 7 Tage

[5] = In vivo comparison of blood kinetics with Dy-DTPA; settings: for Blutkonzentrationen: rats, i.v. 82 µmol Gd/kg
[6] = plasma, rats n=3, i.v., 82 µmol Gd/kg (Verbindung 1), 103 µmol Dy/kg (Verbindung 2)

## {mu-[{16, 16'-(7, 12-Diethyl-3, 8, 13, 17-tetramethylporphyrin-2, 18-diyl]-bis[3,6,9-tris(carboxymethyl)-11, 14-dioxo-3, 6, 9,12, 13-pentaazahexadecanoato]}(8-)]}-digadolinato(2-),-Dinatrium [IV, reference compound]
[1]
  ED50: 6,4·10^-3 mmol PE/l
[2]
  Relaxivity R1: 9.2 ± 0.1 L/mmol/s

## {mu-[{16, 16'-[Chloromangan(III)-7, 12-diethyl-3, 8, 13, 17-tetramethylporphyrin-2, 18-diyl]-bis[3, 6, 9-tris(carboxymethyl)-11, 14-dioxo-3, 6, 9, 12, 13-pentaazahexadecanoato]}(8-)]}-digadolinato(2-),-Dinatrium [Beispiel 2d]
[1]
  ED50: > 1,25 mmol PE/l
[2]
  Relaxivity R1: 9.3 ± 0.1 L/mmol/s
[3]
  Enhancement im nekrotischen Areal des Myocards: deutliches Enhancement
  Abgrenzung des nekrotischen Areals im MRI-Experiment, Korrelation mit histologischer NBT ("Vital"-) Färbung: korreliert sehr gut
[4]; 2 ml/min, value stated as to be expected
  LD50: ≥ 5 mmol Gd/kg
[4]
  Lebern und Nieren aller überlebenden Tiere: unauffällig

## {mu-[{16,16'-[Chloroeisen(III)-7, 12-diethyl-3, 8, 13, 17-tetramethylporphyrin-2, 18-diyl]-bis[3, 6, 9-tris(carboxymethyl)-11,14-dioxo-3, 6, 9, 12, 13-pentaazahexadecanoato]}(8-)]}-digadolinato(2-) [Beispiel 1d]
[1]
  ED50: > 1,25 mmol PE/l
[2]
  Relaxivity R1: 11.9 ± 1.0 L/mmol/s
[3]
  Enhancement im nekrotischen Areal des Myocards: deutliches Enhancement
  Abgrenzung des nekrotischen Areals im MRI-Experiment, Korrelation mit histologischer NBT ("Vital"-) Färbung: korreliert sehr gut
[5]; [6]
  Vd ss: 0.08 ± 0.00 L/kg
  α-t½: 3.56 ± 1.01 min
  β-t½: 2.88 h and 2.8817 ± 0.646 h
[5]; after 120 min
  Blutkonzentrationen: 22-25 % der Dosis
[5]; after three minutes
  Blutkonzentrationen: 56-63 % der Dosis

## {mu-[{16,16'-[Kupfer(II)-7, 12-diethyl-3, 8, 13, 17-tetramethylporphyrin-2,18-diyl]-bis[3, 6, 9-tris(carboxymethyl)-11, 14-dioxo-3, 6, 9, 12, 13-pentaazahexadecanoato]}(8-)]}-digadolinato(2-), Dinatrium [Beispiel 4d]
[1]
  ED50: > 1,25 mmol PE/l
[2]
  Relaxivity R1: 11.0 ± 0.1 L/mmol/s
[3]
  Enhancement im nekrotischen Areal des Myocards: deutliches Enhancement
  Abgrenzung des nekrotischen Areals im MRI-Experiment, Korrelation mit histologischer NBT ("Vital"-) Färbung: korreliert sehr gut
